# Legend:
# [1] = logP determination by HPLC (EEC direction 79/831 Annex V. A8); assay type: physicochemical; conditions: eluent not stated
# Plasmopara viticola = assay: Plasmopara Test (grapevine)/Protective; assay type: in vivo; conditions: protective, application rate 100 g/ha, evaluation 6 days after inoculation
# Experimental: Plasmopara Test (grapevine)/Protective
# (§1) To produce a suitable preparation of active compound, 1 part by weight of active compound is mixed with the stated amounts of solvent and emulsifier, and the concentrate is diluted with water to the desired concentration.
# To test for protective activity, young plants are sprayed with the preparation of active compound at the stated application rate. After the spray coating has dried on, the plants are inoculated with an aqueous spore suspension of Plasmopara viticola and then remain in an incubation cabin at approximately 20° C. and 100% relative atmospheric humidity for 1 day. The plants are then placed in a greenhouse at approximately 21° C. and approximately 90% relative atmospheric humidity. The plants are then moistened and placed in an incubation cabin for 1 day.
# Evaluation is carried out 6 days after the inoculation. 0% means an efficacy which corresponds to that of the control, whereas an efficacy of 100% means that no infection is observed.
# Sphaerotheca fuliginea = assay: Sphaerotheca Test (cucumber)/Protective; assay type: in vivo; conditions: protective, application rate 100 g/ha, evaluation 10 days after inoculation
# Experimental: Sphaerotheca Test (cucumber)/Protective
# as §1
# To test for protective activity, young plants are sprayed with the preparation of active compound at the stated application rate. After the spray coating has dried on, the plants are inoculated with an aqueous spore suspension of Sphaerotheca fuliginea. The plants are then placed in a greenhouse at approximately 23° C. and a relative atmospheric humidity of approximately 70%.
# Evaluation is carried out 10 days after the inoculation. 0% means an efficacy which corresponds to that of the control, whereas an efficacy of 100% means that no infection is observed.
# Venturia inaequalis = assay: Venturia Test (apple)/Protective; assay type: in vivo; conditions: protective, application rate 10 g/ha, evaluation 12 days after inoculation
# Experimental: Venturia Test (apple)/Protective
# as §1
# To test for protective activity, young plants are sprayed with the preparation of active compound at the stated application rate. After the spray coating has dried on, the plants are inoculated with an aqueous conidia suspension of the causative organism of apple scab Venturia inaequalis and then remain in an incubation cabin at approximately 20° C. and 100% relative atmospheric humidity for 1 day.
# The plants are then placed in a greenhouse at approximately 21° C. and a relative atmospheric humidity of approximately 90%.
# Evaluation is carried out 12 days after the inoculation. 0% means an efficacy which corresponds to that of the control, whereas an efficacy of 100% means that no infection is observed.
chromatographic logP [1],SMILES,efficacy (Plasmopara viticola),efficacy (Sphaerotheca fuliginea),efficacy (Venturia inaequalis)
0.97,CO/N=C(\C)C(C)=NN [3-hydrazono-butan-2-one O-methyl oxime],–,–,–
4.4,"COC(=O)/C=C(/OC)c1ccccc1C=NN=C(C)c1cccc(C(F)(F)F)c1 [Example 1, methyl 3-methoxy-3-(2-{[1-(3-trifluoromethylphenyl)-ethylidene]-hydrazonomethyl}-phenyl)-acrylate]",more than 80%,more than 80%,more than 90%

# Source: patent US6410600B1, “Azine used as fungicides” (Bayer Aktiengesellschaft, priority 1998, dated 2002)
